Test results as given in patent US6969763B1, “Molecular interaction sites of interleukin-2 RNA and methods of modulating the same” (priority 1999, dated 2005).
pIC50, pKd: −log10 of the molar value. ≈ marks a conversion by molar mass, not a printed value. Where two headings read alike, the source gives them in different places.

Tests used:
TAR RNA / tat peptide = assay: disruption of TAR RNA interaction with tat peptide; format: binding, HIV
[1] = system: HIV TAR RNA structure in the 5'-UTR of luciferase mRNA; assay: wheat germ lysate translation of luciferase mRNA containing the TAR RNA structure in the 5'-UTR; format: biochemical
Text: It is believed that stabilization of mRNA structures near the 5′-cap also could be effected by specific “small” molecules, and that such binding would reduce the translational efficiency of the mRNA. To test this hypothesis, a plasmid was constructed containing the luciferase message behind a 5′-UTR containing a 27-mer RNA construct of the HIV TAR stem-loop bulge whose structure had been determined by NMR. The resulting mRNA could be expressed and capped in a wheat germ lysate translation system supplemented with T7 polymerase following addition of m^7G to the lysate (see, FIG. 38A). Insertion of a 9-base leader before the TAR structure (HIVluc+9) enhanced the translational efficiency, presumably by allowing the pre-initiation complex to form. The helicase activity associated with the pre-initiation complex can transiently melt out the TAR RNA structure, and the message is translated (see, FIG. 38A).

luciferase mRNA = assay: wheat germ lysate translation of control luciferase mRNA (luc+9); format: biochemical; conditions: in words
Text: It is believed that stabilization of mRNA structures near the 5′-cap also could be effected by specific “small” molecules, and that such binding would reduce the translational efficiency of the mRNA. To test this hypothesis, a plasmid was constructed containing the luciferase message behind a 5′-UTR containing a 27-mer RNA construct of the HIV TAR stem-loop bulge whose structure had been determined by NMR.

TAR = conditions: in words, assay not described
E. coli = assay: high throughput screening assay for antibacterial activity (MIC); format: cell-based; conditions: Escherichia coli, read-out: minimum inhibitory concentrations (MIC's)
Text: This activity was verified by manual solution synthesis of analytically pure material as described in Example 6 above, which had identical activity.

[2] = target: 16S rRNA A-site 27-mer RNA model; assay: ESI-FTICR mass spectrometry (MASS) binding to 16S A-site 27-mer RNA model; parameters: species or system prokaryotic; conditions: for pKd: 16S A site 27mer, read-out: MS-measured dissociation constant (KD); for complex formation with 16S A site RNA: aminoglycosides 500 nM each, in words
Method: (§1) The ESI-FTICR mass spectrum depicted in FIG. 70 was acquired from a […] mixture of untagged 16S and tagged 18S in the presence of an equimolar mixture of five aminoglycosides. It is to be understood that other biomolecules may be used in place of the aminoglycosides. The aminoglycosides have been selected from two classes of 2-deoxystreptamines: 4,5-disubstituted (paromomycin, and lividomycin), and 4,6-disubstituted (tobramycin, sisomicin, and bekanamycin), present at 500 nM each. Complexes corresponding to 1:1 binding of individual aminoglycosides were observed between 16S and all members of the aminoglycoside mixture, with the apparent affinities estimated from the abundances of the respective complexes differing substantially. Signal intensities from the complexes with paromomycin (m/z 1925.572) and lividomycin (m/z 1954.790) are consistent with MS-measured dissociation constants of 110 nM and 28 nM, respectively. The intensities of 16S complexes with tobramycin (m/z 1895.960), bekanamycin (m/z 1899.171), and sisomicin (m/z 1891.972) were reduced, consistent with solution dissociation constants of […]. Wang, et al., Biochemistry, 1997, 36, 768-779. […] The spectrum is calibrated using multiple isotope peaks of the (M−5H^+)^5- and (M−4H^+)^4- charge states of the free RNA as internal mass standards which brackets the m/z range in which complexes are observed. The average mass measurement error obtained for the complexes in FIG. 70 is 2.1 ppm when m/z differences are measured between the most abundant (4 ^13C) isotope peak of 16S and each complex. This post calibration scheme is easily automated which enables rapid, high precision mass measurements of affinity selected ligands against multiple targets in a high throughput mode.
ESI-MS measurements of a solution containing a fixed concentration of RNA at different concentrations of ligand were obtained. By measuring the ratio of bound:unbound RNA at varying ligand concentrations, the Kd was determined by 1/slope of the “titration curve”. The MS derived value of 110 nM is in good agreement with previously reported literature value of 200 nM.
Paromomycin, lividomycin (MW=761.354 Da), sisomicin (MW=447.269 Da), tobramycin (MW=467.2591 Da), and bekanamycin (MW=483.254 Da) were obtained from Sigma (St. Louis, Mo.) and ICN (Costa Mesa, Calif.) and were dissolved to generate 10 mM stock solutions. 2′ methoxy analogs of RNA constructs representing the prokaryotic (16S).rRNA and eukaryotic (18S) rRNA A-site (FIG. 68) were synthesized in house and precipitated twice from 1 M ammonium acetate following deprotection with ammonia (pH 8.5). The mass-tagged constructs contained an 18-atom mass tag (C12H25O9) attached to the 5′-terminus of the RNA oligomer through a phosphodiester linkage.
All mass spectrometry experiments were performed using an Apex 11 70e electrospray ionization Fourier transform ion cyclotron resonance mass spectrometer (Bruker Daltonics, Billerica) employing an actively shielded 7 tesla superconducting magnet. RNA solutions were prepared in 50 mM NH4OAc (pH 7), mixed 1: v:v with isopropanol to aid desolvation, and infused at a rate of […] using a syringe pump. Ions were formed in a modified electrospray source (Analytica, Branford) employing an off axis, grounded electrospray probe positioned ca. 1.5 cm from the metalized terminus of the glass desolvation capillary biased at 5000 V. A counter-current flow of dry oxygen gas heated to 225° C. was employed to assist in the desolvation process. Ions were accumulated in an external ion reservoir comprised of an RF-only hexapole, a skimmer cone, and an auxiliary electrode for 1000 ms prior to transfer into the trapped ion cell for mass analysis. Each spectrum was the result of the coaddition of 16 transients comprised of 256 datapoints acquired over a 90,909 kHz bandwidth resulting in a 700 ms detection interval. […]

[3] = system: 18S rRNA A-site 27-mer RNA model; assay: ESI-FTICR mass spectrometry binding to mass-tagged 18S A-site 27-mer RNA model; parameters: species or system eukaryotic; conditions: aminoglycosides 500 nM each, in words
Method: as §1, with “The” for “The spectrum is calibrated using multiple isotope peaks of the (M−5H^+)^5- and (M−4H^+)^4- charge states of the free RNA as internal mass standards which brackets the m/z range in which complexes are observed. The”, “This post calibration scheme is easily automated which enables rapid, high precision mass measurements of affinity selected ligands against multiple targets in a high throughput mode.” left out

[4] = target: 27-mer model RNA sequence of the 16S A-site; assay: MASS assay with the 27-mer model RNA sequence of the 16S A-site (Table 6); format: binding; conditions: 27-mer model RNA of the 16S A-site
Method: (§2) The compounds are screened for binding affinity using MASS or conventional high-throughput functional screens. […] The MASS assay was performed with the 27-mer model RNA sequence of the 16S A-site whose NMR structure has been determined. The transcription/translation assay was based on expression of a luciferase plasmid.
(§3) Paromomycin is an aminoglycoside antibiotic known to bind to the A-site RNA structure. The NMR structure was determined with paromomycin bound at the A-site.

[5] = system: translation of a luciferase plasmid; assay: transcription/translation assay based on expression of a luciferase plasmid; format: biochemical; conditions: inhibition of translation of a luciferase plasmid
Method: as §2, §3

[6] = target: decoding region of the prokaryotic 16S rRNA (the A-site); conditions: 16S A-site, read-out: solution dissociation constant (literature), cited from earlier work

## CNc1ccc(NCCO)c2c1C(=O)c1ccccc1C2=O [ACD 00001199]
TAR RNA / tat peptide
  concentration disrupting the TAR RNA interaction with tat peptide: 1 µM
[1]; in words
  inhibition of translation of luciferase mRNA containing TAR RNA structure: dose-dependent inhibition of translation
[1]; luciferase mRNA containing the TAR RNA structure in the 5'-UTR, read-out: concentration reducing translation by 50%
  pIC50: 4.30
Luciferase mRNA
  inhibition of translation of the luciferase mRNA (control): some inhibition of translation at very high concentrations
TAR
  IC5, values: low

## O=C(NO)[C@@H](Cc1ccc2ccccc2c1)NS(=O)(=O)c1ccc2ccccc2c1 [Compound 5-n-ii, (2R)-3-(2-naphthyl)-2-((2-naphthylsulfonyl)amino)propanehydroxamic acid]
E. coli
  MIC: 0.7 to 1.5 µM (≈ 0.294 to 0.631 µg/mL)

## O=C(NO)[C@@H](Cc1ccc2ccccc2c1)NS(=O)(=O)c1ccc(Br)cc1 [Compound 5n-vi, (2R)-2-(((4-bromophenyl)sulfonyl)amino)-3-(2-naphthyl)propanehydroxamic acid]
E. coli
  MIC: 3 to 6 µM (≈ 1.35 to 2.7 µg/mL)

## NC[C@@H]1O[C@H](O[C@H]2[C@@H](O)[C@H](O[C@@H]3[C@@H](O)[C@H](N)C[C@H](N)[C@H]3O[C@H]3O[C@H](CO)[C@@H](O)[C@H](O)[C@H]3N)O[C@@H]2CO)[C@H](N)[C@@H](O)[C@@H]1O [Paromomycin]
[2]
  pKd: 6.96
  complex formation with 16S A site RNA: High affinity complexes
[3]
  complex formation with 18S A site RNA: complete absence of complexes
[4]
  pKd: 6.30
[5]
  Activity^1: 0.3 µM
[6]; listed as paromomycin
  pKd: 6.70
[6]
  pKd: ~6.70

## NC[C@H]1O[C@H](O[C@H]2[C@H](O)[C@@H](O[C@H]3O[C@H](CO)[C@@H](O)[C@H](N)[C@H]3O)[C@H](N)C[C@@H]2N)[C@H](N)[C@@H](O)[C@@H]1O [bekanamycin]
[2]
  complex formation with 16S A site RNA: Weaker complexes

## NC[C@@H]1O[C@H](O[C@H]2[C@@H](O)[C@H](O[C@@H]3[C@@H](O)[C@H](N)C[C@H](N)[C@H]3O[C@H]3O[C@H](CO)[C@@H](O)C[C@H]3N)O[C@@H]2CO)[C@H](N)[C@@H](O)[C@@H]1O[C@H]1O[C@H](CO)[C@@H](O)[C@H](O)[C@@H]1O [lividomycin]
[2]
  enhancement of binding affinity for 16S relative to paromomycin: ~4 fold
  pKd: 7.55
  complex formation with 16S A site RNA: High affinity complexes
[3]
  complex formation with 18S A site RNA: complete absence of complexes

## CN[C@@H]1[C@@H](O)[C@@H](O[C@@H]2[C@@H](O)[C@H](O[C@H]3OC(CN)=CC[C@H]3N)[C@@H](N)C[C@H]2N)OC[C@]1(C)O [sisomicin]
[2]
  complex formation with 16S A site RNA: Weaker complexes

## NC[C@H]1O[C@H](O[C@H]2[C@H](O)[C@@H](O[C@H]3O[C@H](CO)[C@@H](O)[C@H](N)[C@H]3O)[C@H](N)C[C@@H]2N)[C@H](N)C[C@@H]1O [tobramycin]
[2]
  complex formation with 16S A site RNA: Weaker complexes
